Converted amounts (≈) assume the structure as drawn.
Assays:
sucrase = biological target: T1, sucrase (Oryctolagus cuniculus, UniProt P07768); test: alpha-glucosidase inhibiting action in vitro: sucrase; assay type: biochemical, rabbit; conditions: 50 mM sucrose, pH 7.0, 37° C., 30 minutes; for IC50: IC50, Sucrase, crudely purified enzyme from rabbit small intestine mucosa, average of three measurements (* four)
T1 construct: from tissue; host or cells: rabbit small intestine mucosa, crudely purified by a method of Takesue, 1969
T1 sequence (P07768 1008-1827 limits assumed): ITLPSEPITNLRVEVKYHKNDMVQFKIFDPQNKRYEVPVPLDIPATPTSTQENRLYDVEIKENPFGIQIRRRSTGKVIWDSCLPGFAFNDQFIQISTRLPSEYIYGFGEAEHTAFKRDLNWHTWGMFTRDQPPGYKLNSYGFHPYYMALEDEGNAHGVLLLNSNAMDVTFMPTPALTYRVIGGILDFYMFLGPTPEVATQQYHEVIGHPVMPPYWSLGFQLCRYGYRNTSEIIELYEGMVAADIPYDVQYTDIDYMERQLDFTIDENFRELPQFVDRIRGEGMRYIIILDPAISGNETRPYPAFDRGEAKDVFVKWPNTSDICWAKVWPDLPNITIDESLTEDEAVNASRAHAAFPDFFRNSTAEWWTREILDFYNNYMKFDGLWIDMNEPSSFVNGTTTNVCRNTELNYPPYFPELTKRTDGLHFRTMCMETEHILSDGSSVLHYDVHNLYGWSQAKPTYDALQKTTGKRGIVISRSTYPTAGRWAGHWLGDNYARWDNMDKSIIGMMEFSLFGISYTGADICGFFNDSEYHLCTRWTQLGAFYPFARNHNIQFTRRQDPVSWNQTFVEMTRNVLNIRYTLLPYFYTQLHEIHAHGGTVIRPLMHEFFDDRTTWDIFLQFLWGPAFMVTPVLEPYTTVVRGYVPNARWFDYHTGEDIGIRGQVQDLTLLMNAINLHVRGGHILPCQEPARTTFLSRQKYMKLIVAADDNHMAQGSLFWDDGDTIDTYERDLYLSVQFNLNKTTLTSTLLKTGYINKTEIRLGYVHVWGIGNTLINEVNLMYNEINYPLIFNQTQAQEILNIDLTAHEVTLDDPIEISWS
T1 sequence (P07768 2-1007 partner limits assumed): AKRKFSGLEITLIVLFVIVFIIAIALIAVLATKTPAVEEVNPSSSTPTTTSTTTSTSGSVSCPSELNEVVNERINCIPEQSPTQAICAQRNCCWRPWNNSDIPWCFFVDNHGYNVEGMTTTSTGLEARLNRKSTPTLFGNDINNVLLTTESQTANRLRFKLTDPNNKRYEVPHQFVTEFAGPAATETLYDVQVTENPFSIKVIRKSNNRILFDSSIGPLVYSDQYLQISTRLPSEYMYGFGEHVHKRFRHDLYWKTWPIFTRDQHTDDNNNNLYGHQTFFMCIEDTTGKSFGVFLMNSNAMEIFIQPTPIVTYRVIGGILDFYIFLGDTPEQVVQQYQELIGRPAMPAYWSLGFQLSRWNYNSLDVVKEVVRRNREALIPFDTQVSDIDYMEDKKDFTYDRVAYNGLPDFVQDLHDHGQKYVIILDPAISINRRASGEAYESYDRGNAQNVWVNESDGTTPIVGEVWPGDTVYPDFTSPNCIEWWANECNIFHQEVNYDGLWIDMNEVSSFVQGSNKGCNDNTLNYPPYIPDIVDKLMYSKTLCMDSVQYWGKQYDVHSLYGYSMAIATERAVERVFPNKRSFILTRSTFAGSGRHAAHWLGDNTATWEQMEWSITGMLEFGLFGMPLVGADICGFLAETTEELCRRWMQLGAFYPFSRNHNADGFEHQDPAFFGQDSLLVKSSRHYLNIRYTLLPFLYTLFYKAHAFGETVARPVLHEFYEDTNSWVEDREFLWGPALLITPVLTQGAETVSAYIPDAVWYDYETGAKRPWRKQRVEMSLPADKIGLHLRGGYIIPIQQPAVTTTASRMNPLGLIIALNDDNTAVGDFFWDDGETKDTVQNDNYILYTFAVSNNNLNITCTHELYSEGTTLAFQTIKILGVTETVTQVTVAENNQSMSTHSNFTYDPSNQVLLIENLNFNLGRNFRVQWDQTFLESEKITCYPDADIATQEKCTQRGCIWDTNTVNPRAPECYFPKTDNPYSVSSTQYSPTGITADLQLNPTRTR
Method: (§1) MEASUREMENT OF ALPHA-GLUCOSIDASE INHIBITING ACTION IN VITRO
(§2) The activity of the test compounds in inhibiting sucrase and maltase in vitro using a crudely purified enzyme preparation (purified in accordance with a method of Takesue, 1969) obtained from rabbit small intestine mocosa was carried out as follows.
(§3) To 40 microliters of enzyme solution diluted with 0.4M phosphate buffer (pH 7.0) are added 20 microliters of a solution of a test compound in the same buffer and 140 microliters of a solution of a substrate (50 mM sucrose or 50 mM maltose) in the same buffer and the mixture is allowed to react at 37° C. for 30 minutes. The reaction is then stopped by adding 400 microliters of 3N barium hydroxide and 400 microliters of 5% zinc sulfate solution. The amount of the enzyme that is reacted is determined as the amount of glucose contained in 200 microliters of the supernatant liquid of the reaction solution by adding 3 ml of glucoseoxidase reagent (Bioehringer-Mannheim) followed by reacting at ambient temperature for 30 minutes and measuring the absorbance at 420 nm. The concentration of the compound that provides 50% inhibition (IC50) of sucrase and maltase is calculated by expressing the values (as measured by the above method with five different concentrations) as an inhibitory rate (%) to the control.

maltase = test: alpha-glucosidase inhibiting action in vitro: maltase; assay type: biochemical, rabbit; conditions: 50 mM maltose, pH 7.0, 37° C., 30 minutes; for inhibitory rate, Maltase: ** inhibitory rate at 100 μg/ml; for IC50, Maltase: crudely purified enzyme from rabbit small intestine mucosa, average of three measurements (* four)
Method: as §1, §2, §3

[1] = tested on: increase in blood glucose level; test: inhibitory action against increase in blood glucose level in rats (oral sucrose load); assay type: in vivo, SD-Strain rats; conditions: per os, 1 ml/100 g of sucrose solution (2 g/10 ml) containing 30 mg test compound, 180 minutes after administration
Method: INHIBITORY ACTION AGAINST INCREASE IN BLOOD GLUCOSE LEVEL IN RATS
SD-Strain rats (5 weeks age; male; each group comprising 4 to 5 rats) were fasted overnight and then given 1 ml/100 g body weight of aqueous solution of sucrose (2 g/10 ml) containing 30 mg test compound per os through a stomach tube.
Blood was taken from the tail vein immediately before the administration and at 30, 60, 90, 120 and 180 minutes thereafter and blood glucose levels were measured by a glucose oxidase method (using the assay kit prepared by Boehringer Mannheim).
Based on the values obtained above, a graph was drawn using time as the abscissa and blood glucose level as the ordinate and the area (ΔAUC)under the time-blood glucose increase curve was determined.
A group of rats receiving only water and another group receiving only sucrose were designated as a basal group (group B) and a control group (group C), respectively. Then the inhibitory rate for an increase in ΔAUC 180 minutes after administration of the test compounds (group T) was calculated from the following expression. [formula]

mice = test: oral toxicity in mice; assay type: in vivo; conditions: orally, 5 g/kg
Method: The toxicity of the compounds (I) was tested by giving the compound of Example 1 orally to mice (5 g/kg) but there were no deaths.

Row | Structure (SMILES) | IC50 (sucrase) [µM] | inhibitory rate, Maltase (maltase) [%] | Inhibitory Rate (%) for increase in ΔAUC of blood glucose [1] [%] | deaths (mice) | IC50, Maltase (maltase) [µg/mL] | inhibition at 100 µg/mL (sucrase; ** inhibitory rate at 100 μg/ml) [%]
1 | Cc1ccc(CN2C[C@H](O)[C@@H](O)[C@H](O[C@H]3O[C@H](CO)[C@@H](O)[C@H](O)[C@H]3O)[C@H]2CO)cc1 [Example 1, 4-O-alpha-D-Glucopyranosyl-N-(p-methylbenzyl)-moranoline] | 36.1 | 23.5 | 68.6 | no deaths |  | 
2 | OC[C@@H]1[C@@H](O[C@H]2O[C@H](CO)[C@@H](O)[C@H](O)[C@H]2O)[C@H](O)[C@@H](O)CN1CCc1ccccc1 [Example 6, 4-O-alpha-D-Glucopyranosyl-N-(beta-phenylethyl)moranoline] | 71.7 |  | 69.9 |  | 192.5 (≈ 448 µM) | 
3 | OC[C@@H]1[C@@H](O[C@H]2O[C@H](CO)[C@@H](O)[C@H](O)[C@H]2O)[C@H](O)[C@@H](O)CN1CCCCOc1ccccc1 [Example 14, 4-O-alpha-D-Glucopyranosyl-N-(4-phenoxybutyl)-moranoline] | 14.4 |  | 86.9 |  | 168.6 (≈ 356 µM) | 
4 | OC[C@@H]1[C@@H](O[C@H]2O[C@H](CO)[C@@H](O)[C@H](O)[C@H]2O)[C@H](O)[C@@H](O)CN1CC=Cc1ccccc1 [Example 20, 4-O-alpha-D-Glucopyranosyl-N-cinnamylmoranoline p-toluenesulfonate] | 22 |  | 76.8 |  | 284.9 (≈ 645 µM) | 
5 | CCCCCCCCCN1C[C@H](O)[C@@H](O)[C@H](O[C@H]2O[C@H](CO)[C@@H](O)[C@H](O)[C@H]2O)[C@H]1CO [Example 17, 4-O-alpha-D-Glucopyranosyl-N-nonylmoranoline hydrate] | 11.5 |  | 80.2 |  | 77.9 | 
6 | OC[C@@H]1[C@@H](O[C@H]2O[C@H](CO)[C@@H](O)[C@H](O)[C@H]2O)[C@H](O)[C@@H](O)CN1CC(O)COc1ccccc1 (stereo partly drawn) [Example 22, 4-O-alpha-D-Glucopyranosyl-N-(2-hydroxy-3-phenoxypropyl)moranoline p-toluenesulfonate hydrate] | 33.9 |  | 48.4 |  | 40.9 | 
7 | COc1ccc(CN2C[C@H](O)[C@@H](O)[C@H](O[C@H]3O[C@H](CO)[C@@H](O)[C@H](O)[C@H]3O)[C@H]2CO)cc1 [Example 8, 4-O-alpha-D-Glucopyranosyl-N-(p-methoxybenzyl)moranoline] | 55.7 |  | 54.8 |  | 173.0 (≈ 388 µM) | 
8 | OC[C@@H]1[C@@H](O[C@H]2O[C@H](CO)[C@@H](O)[C@H](O)[C@H]2O)[C@H](O)[C@@H](O)CN1Cc1ccc(Br)cc1 [Example 4, 4-O-alpha-D-Glucopyranosyl-N-(p-bromobenzyl)moranoline] | 20.2 |  |  |  | 34.2 (≈ 69.2 µM) | 
9 | OC[C@@H]1[C@@H](O[C@H]2O[C@H](CO)[C@@H](O)[C@H](O)[C@H]2O)[C@H](O)[C@@H](O)CN1CCc1ccccc1 [Example 19, 4-O-alpha-D-Glucopyranosyl-N-phenethylmoranoline p-toluenesulfonate] |  |  | 54.0 |  |  | 
10 | CCCCCCN1C[C@H](O)[C@@H](O)[C@H](O[C@H]2O[C@H](CO)[C@@H](O)[C@H](O)[C@H]2O)[C@H]1CO [Example 5, 4-O-alpha-D-Glucopyranosyl-N-hexylmoranoline p-toluenesulfonate] |  |  | 94.8 |  |  | 
11 | Cc1ccc(CN2C[C@H](O)[C@@H](O)[C@H](O[C@H]3O[C@H](CO)[C@@H](O)[C@H](O)[C@H]3O)[C@H]2CO)cc1 [Example 25, 4-O-alpha-D-Glucopyranosyl-N-(p-methylbenzyl)moranoline p-toluenesulfonate] | 32.6 |  | 84.4 |  | 69.2 (≈ 161 µM) | 
12 | OC[C@@H]1[C@@H](O[C@H]2O[C@H](CO)[C@@H](O)[C@H](O)[C@H]2O)[C@H](O)[C@@H](O)CN1CCOc1ccccc1 [Example 9, 4-O-alpha-D-Glucopyranosyl-N-(beta-phenoxyethyl)moranoline] | 14.4 |  | 64.5 |  | 223.6 (≈ 502 µM) | 
13 | COC(=O)CCCCN1C[C@H](O)[C@@H](O)[C@H](O[C@H]2O[C@H](CO)[C@@H](O)[C@H](O)[C@H]2O)[C@H]1CO [Example 18, 4-O-alpha-D-Glucopyranosyl-N-(4-methoxycarbonylbutyl)moranoline p-toluenesulfonate] | 45.1 |  | 47.9 |  | 44.6 (≈ 101 µM) | 
14 | C=CCN1C[C@H](O)[C@@H](O)[C@H](O[C@H]2O[C@H](CO)[C@@H](O)[C@H](O)[C@H]2O)[C@H]1CO [Example 13, 4-O-alpha-D-Glucopyranosyl-N-allylmoranoline p-toluenesulfonate] | 62.7 |  | 77.1 |  | 262.1 (≈ 717 µM) | 
15 | O=C(O)c1ccc(CN2C[C@H](O)[C@@H](O)[C@H](O[C@H]3O[C@H](CO)[C@@H](O)[C@H](O)[C@H]3O)[C@H]2CO)cc1 [Example 12, 4-O-alpha-D-Glucopyranosyl-N-(4-carboxybenzyl)moranoline p-toluenesulfonate] |  | 2.0 | 46.6 |  |  | 21.9
16 | CC(C)=CCN1C[C@H](O)[C@@H](O)[C@H](O[C@H]2O[C@H](CO)[C@@H](O)[C@H](O)[C@H]2O)[C@H]1CO [Example 3, 4-O-alpha-D-Glucopyranosyl-N-(3-methylcrotyl)moranoline p-toluensulfonate] | 43.7 |  | 73.2 |  | 248.9 (≈ 633 µM) | 

Source: patent US4855415A, “Glucosylmoranoline derivatives” (Nippon Shinyaku Co., Ltd., priority 1986, dated 1989)
